Where two headings read alike, the source gives them in different places.
Key:
[1] = Cellular membrane permeability; assay type: in vitro ADME
From the text: (§1) These properties indicate the compound's suitability for in vivo administration.

[2] = tested on: phospho-AKT in monocytes; assay: Ex vivo whole blood stimulation of phospho-AKT in monocytes of LLC-bearing mice; conditions: LLC-bearing mice treated with compound
[3] = tested on: GL261-Luc; assay: GL261-Luc murine glioblastoma subcutaneous model; assay type: in vivo, mouse; conditions: 15 mg/kg QD, PO
[4] = tested on: Myeloid Derived Suppressor Cell; assay: Myeloid Derived Suppressor Cell differentiation assay; assay type: cell-based; conditions: MDSC differentiation assay
[5] = tested on: IL-8 induced neutrophil migration; assay: IL-8 driven murine air pouch model; conditions: mouse air pouch; BB 0.1-3 mg/kg, AA 10-50 mg/kg
[6] = Stability in simulated gastric fluid; assay type: physicochemical; conditions: 38°
From the text: (§2) The phyiscochemical properties of Compound BB are drug-like, and suitable for use of the compound as a drug.

[7] = tested on: differentiation of myeloid cells into M2 TAMs; assay: Murine M2 TAM differentiation (ARG1 levels); assay type: cell-based, mouse; conditions: FIG. 22A/22B
From the text: High ARG1 (Arginase-1) levels indicate that myeloid cells are differentiating into M2 macrophages, so lower ARG1 levels relative to a control indicate interference with differentiation into M2 macrophages. Expression of Arginase-1 depletes the tumor microenvironment of arginine, thereby promoting T cell death and NK cell inhibition. Schmid et. al., Proceedings: AACR 103rd Annual Meeting 2012, Cancer Research: Apr. 15, 2012; Volume 72, Issue 8, Supplement 1. […] M2 TAMs promote cancer cell survival (FIG. 23).
M2 macrophages can be produced as follows. Sacrifice mouse and collect femur and tibias Immerse the bones on a petri dish in 70% ethanol for 1-2 min, then remove the bones and let the ethanol dry off for 3-4 min. Cut off a very small portion of the end of the bones to make an easy access for needle insert. Using a 27 g needle filled will media containing DMEM+10% FBS+1% Pen/Strep (complete DMEM), expel the bone marrow from both ends of the bones into a 15 ml petri dish. Pipette the bone marrow to dissociate the bone marrow cells. Centrifuge and add 1× Red Cell lysis buffer to the pellet. Let RBC lyse for 2 min then add equal amount of complete DMEM and centrifuge. The bone marrow from one mouse can be divided into 2 petri dishes containing 7 ml of BMM media (DMEM+20% FBS+1% Pen/Strep+50 ng/ml M-CSF). […] The cells are ready for polarization on day 6. […]

[8] = pKa; assay type: physicochemical
From the text: as §2

[9] = tested on: CT26 colon carcinoma; assay: CT26 allograft model of mouse colon cancer; assay type: in vivo; conditions: FIG. 28
Description: CT26 is an N-nitroso-N-methylurethane-(NNMU) induced, undifferentiated colon carcinoma cell line. It was cloned to generate the cell line designated CT26.WT […] number CRL-2638). 5-6 week old female, Balb/c mice (Jackson Labs) were implanted subcutaneously with 5×10^5 CT26 cells in 200 μl PBS. CT26 cells were cultured in DMEM supplemented with 10% FBS.

[10] = Pharmacokinetics in rodent and non-rodent animal species; assay type: in vivo
From the text: as §1

[11] = tested on: collagen induced arthritis; assay: Rat collagen induced arthritis (CIA) model; assay type: in vivo
[12] = Mouse pharmacokinetics, oral single and repeat dose; assay type: in vivo; conditions: female mice, 2, 7.5, 15 mg/kg PO
Description: Animals were weighed daily prior to dosing. […] On subsequent dosing days, the animals' condition was noted prior to dosing; the animals were observed within 4 hours of dosing, and at the end of the day.
Samples were collected at pre-dose 0.25, 0.5, 1, 2, 4, 6 and 24 h following the first dose on day 1 and pre-dose (trough), 0.25, 0.5, 1, 2, 4, 6 and 24 h following the final dose on day 3 Animals received a single oral dose daily for 3 consecutive days. Blood was collected by retro-orbital bleeding for all time points on day 1. All other blood sampling was collected by a cardiac puncture. Blood was collected into K2EDTA tubes and placed on wet ice. Within 15 min of collection, the sample was centrifuged at 10,000 rpm at 4° C. for 10 min in a bench top centrifuge and the plasma transferred to a new microcentrifuge tube.
A similar study was carried out using Compound 88. […] Below is a table that details the results for Compound 88: […]

[13] = Unbound concentrations in tumor and plasma, LLC model, 12 days daily oral administration; assay type: in vivo, mouse; conditions: Plasma, 12 days daily oral administration in NMP solution, read-out: Free Conc
From the text: Below is a table of details:

[14] = tested on: TMD8 cell line; assay: Combination isobologram in TMD8 cell line; assay type: cell-based; conditions: combination of Compound AA and Compound BB
[15] = tested on: Farage cell line; assay: Combination isobologram in Farage cell line; assay type: cell-based; conditions: combination of Compound AA and Compound BB

C[C@H](NC(=O)c1c(N)nn2cccnc12)c1cc2cccc(C#Cc3cnn(C)c3)c2c(=O)n1-c1ccccc1 [Compound BB]
cellular membrane permeability [1]: high cellular membrane permeability
Papp [10−6 cm/s] @ 10 uM ([1]; 10 uM): High
ex vivo whole blood stimulation of phospho-AKT in monocytes [2]: inhibits
total flux, GL-261 syngeneic glioma model [3]: reduced the total flux
tumor volume, GL-261 syngeneic glioma model [3]: reduced tumor volume
ARG1 [4]: suppresses
VEGF [4]: suppresses
IL-8 induced neutrophil migration [5]: blocks IL-8 induced neutrophil migration
stability in simulated gastric fluid [6]: > 4 h
M2 TAM differentiation (ARG1 levels) [7]: inhibited M2 TAM differentiation much more effectively than PI3K-δ inhibitor
pKa [8]: no ionization from pH 3-10
MDSC expansion after cyclophosphamide treatment [9]: decreased
clearance ([10]; in vivo): low clearance
half-life in vivo ([10]; in vivo): long half-life
volume of distribution ([10]; in vivo): high volume of distribution
oral bioavailability ([10]; rodent and non-rodent animal species): high oral bioavailability
bone resorption score reduction ([11]; 0.5 mg/kg): 25%
cartilage damage score reduction ([11]; 0.5 mg/kg): 28%
inflammation score reduction ([11]; 0.5 mg/kg): 27%
pannus score reduction ([11]; 0.5 mg/kg): 28%
periosteal bone formation score reduction ([11]; 0.5 mg/kg): 52%
periosteal bone widths reduction ([11]; 0.5 mg/kg): 47%
reduction in summed scores ([11]; 0.5 mg/kg, non-significant): 31%
reduction of scored parameters ([11]; 0.5 mg/kg, non-significant): 27-52%
bone resorption score reduction ([11]; 1.5 mg/kg): 44%
cartilage damage score reduction ([11]; 1.5 mg/kg): 45%
inflammation score reduction ([11]; 1.5 mg/kg): 36%
pannus score reduction ([11]; 1.5 mg/kg): 44%
periosteal bone formation score reduction ([11]; 1.5 mg/kg): 52%
periosteal bone widths reduction ([11]; 1.5 mg/kg): 50%
reduction in summed scores ([11]; 1.5 mg/kg, significant): 42%
bone resorption score reduction ([11]; 5 mg/kg): 65%
cartilage damage score reduction ([11]; 5 mg/kg): 59%
inflammation score reduction ([11]; 5 mg/kg): 57%
pannus score reduction ([11]; 5 mg/kg): 71%
periosteal bone formation score reduction ([11]; 5 mg/kg): 82%
periosteal bone widths reduction ([11]; 5 mg/kg): 82%
reduction in summed scores ([11]; 5 mg/kg, significant): 64%
reductions in all scores ([11]; 5 mg/kg, significant): 57-82%
mean ankle diameter ([11]; day 9 to day 17, FIG. 1): therapeutic effects
stability in serum (unbound plasma concentration time course) [12]: good stability in serum
concentration at 2 h ([13]; C57 Albino, mouse, 3 mg/kg, 2 h): 25.9 nM
concentration at 2 h ([13]; C57 Albino, mouse, 7.5 mg/kg, 2 h): 99 nM
concentration at 2 h ([13]; C57 Albino, mouse, 15 mg/kg, 2 h): 157 nM
concentration at 2 h ([13]; 3 mg/kg, Trough): 0.75 nM
concentration at 2 h ([13]; 7.5 mg/kg, Trough): 8.99 nM
concentration at 2 h ([13]; 15 mg/kg, Trough): 8.39 nM
combination effect (isobologram) [14]: synergistic effect
combination effect (isobologram) [15]: synergistic effect
